Test results: PubChem BioAssay AID330 (DTP/NCI, 2004)
Several values for one entry are separate records, joined by “and”; a condition that tells them apart may be missing. Equal values may be shown once. Toxic doses and inconclusive results are not listed. The calls were made as follows: active = survival T/C of 150% or more; inactive = T/C below 125% in these data.

Tested on: P388 leukemia ip, CD2F1 mice, survival T/C
Assay: NCI In Vivo Anticancer Drug Screen. Data for tumor model P388 Leukemia (intraperitoneal) in CD2F1 (CDF1) mice
Settings: endpoint: median survival time, higher = longer survival
How it was run: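 Mice carrying the transplanted tumor received test compound or vehicle. Survival was recorded in each group, and the value is the treated-group measurement divided by that of the vehicle-treated control group.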

[1] = dose: 50.0 mg/kg/injection, schedule: Q01DX009 (ip), vehicle: saline
[2] = dose: 100.0 mg/kg/injection, schedule: Q01DX009 (ip), vehicle: saline
[3] = dose: 200.0 mg/kg/injection, schedule: Q01DX009 (ip), vehicle: saline
[4] = dose: 6.25 mg/kg/injection, schedule: Q01DX009 (ip), vehicle: saline with Tween-80
[5] = dose: 12.5 mg/kg/injection, schedule: Q01DX009 (ip), vehicle: saline with Tween-80
[6] = dose: 50.0 mg/kg/injection, schedule: Q01DX005 (ip), vehicle: saline with Tween-80
[7] = dose: 200.0 mg/kg/injection, schedule: Q01DX005 (ip), vehicle: saline with Tween-80
[8] = dose: 60.0 mg/kg/injection, schedule: Q01DX005 (ip), vehicle: Klucel (hydroxypropylcellulose) (HPC)
[9] = dose: 120.0 mg/kg/injection, schedule: Q01DX005 (ip), vehicle: Klucel (hydroxypropylcellulose) (HPC)
[10] = dose: 100.0 mg/kg/injection, schedule: Q04DX003 (ip), vehicle: saline sonified

Measured: T/C

CC1N=C(SCC(=O)c2ccc(F)cc2)N2C(C)N=C(SCC(=O)c3ccc(F)cc3)N12 (stereo unspecified)
inactive: [1] 111 % of control | [2] 111 % of control | [3] 98 % of control

CC1(C)OC2(C)CCC1C1C2N1C(=O)NCCCl (stereo unspecified)
inactive: dose: 50.0 mg/kg/injection, schedule: Q01DX005 (ip), vehicle: saline 108 % of control | dose: 100.0 mg/kg/injection, schedule: Q01DX005 (ip), vehicle: saline 100 % of control | dose: 200.0 mg/kg/injection, schedule: Q01DX005 (ip), vehicle: saline 89 % of control

COc1cccc2c1[n+]([O-])c1cccc(O)c1[n+]2[O-]
inactive: dose: 1.56 mg/kg/injection, schedule: Q01DX009 (ip), vehicle: saline with Tween-80 112 % of control | dose: 3.12 mg/kg/injection, schedule: Q01DX009 (ip), vehicle: saline with Tween-80 109 % of control | [4] 114 % of control | [5] 124 % of control

CC(=O)Nc1cccc(/C(C)=N/NC(N)=O)c1
inactive: [6] 91 % of control | dose: 100.0 mg/kg/injection, schedule: Q01DX005 (ip), vehicle: saline with Tween-80 91 % of control | [7] 89 % of control

N#CC(C#N)=C/C=C/c1cccc([N+](=O)[O-])c1
inactive: dose: 3.12 mg/kg/injection, schedule: Q01DX009 (ip), vehicle: Klucel (hydroxypropylcellulose) (HPC) 114 % of control | dose: 6.25 mg/kg/injection, schedule: Q01DX009 (ip), vehicle: Klucel (hydroxypropylcellulose) (HPC) 123 % of control | dose: 8.2 mg/kg/injection, schedule: Q01DX009 (ip), vehicle: Klucel (hydroxypropylcellulose) (HPC) 118 % of control | dose: 25.0 mg/kg/injection, schedule: Q01DX009 (ip), vehicle: Klucel (hydroxypropylcellulose) (HPC) 100 % of control

CC1=C(C(N)=O)C(c2ccc([N+](=O)[O-])cc2)NC(=S)N1 (stereo unspecified)
inactive: [8] 92 % of control | [9] 90 % of control | dose: 240.0 mg/kg/injection, schedule: Q01DX005 (ip), vehicle: Klucel (hydroxypropylcellulose) (HPC) 92 % of control

Nc1ccc2[se]ccc2c1
inactive: dose: 12.5 mg/kg/injection, schedule: Q01DX009 (ip), vehicle: suspension in saline 105 % of control | dose: 25.0 mg/kg/injection, schedule: Q01DX009 (ip), vehicle: suspension in saline 100 % of control | [1] 91 % of control | dose: 50.0 mg/kg/injection, schedule: Q01DX009 (ip), vehicle: suspension in saline 100 % of control | [3] 100 % of control

O=C(NC1CCC1)OCc1c(COC(=O)NC2CCC2)c(-c2ccc(Cl)c(Cl)c2)n2c1CCC2
active: dose: 12.5 mg/kg/injection, schedule: Q01DX009 (ip), vehicle: distilled water + Tween-80 155 % of control | dose: 25.0 mg/kg/injection, schedule: Q01DX009 (ip), vehicle: distilled water + Tween-80 173 % of control and 194 % of control
inactive: dose: 3.13 mg/kg/injection, schedule: Q01DX009 (ip), vehicle: distilled water + Tween-80 117 % of control

NS(=O)(=O)c1ccc(N2CCS(=O)(=O)CC2)cc1
inactive: [1] 101 % of control | [2] 90 % of control | [3] 97 % of control

CCN(CC)CC(C)(C)C(=O)/C=C/c1ccc(C)cc1
inactive: dose: 60.0 mg/kg/injection, schedule: Q01DX005 (ip), vehicle: saline 103 % of control | dose: 120.0 mg/kg/injection, schedule: Q01DX005 (ip), vehicle: saline 103 % of control | dose: 240.0 mg/kg/injection, schedule: Q01DX005 (ip), vehicle: saline 110 % of control

O=[N+]([O-])O.[Cu+2].[NH-]CC[NH-].[NH-]CC[NH-]
inactive: dose: 3.12 mg/kg/injection, schedule: Q01DX009 (ip), vehicle: saline 100 % of control | dose: 6.25 mg/kg/injection, schedule: Q01DX009 (ip), vehicle: saline 100 % of control | dose: 12.5 mg/kg/injection, schedule: Q01DX009 (ip), vehicle: saline 100 % of control | dose: 25.0 mg/kg/injection, schedule: Q01DX009 (ip), vehicle: saline 92 % of control

O=C(Nc1cccc2c1C(O)c1ccccc1-2)C(Cl)Cl (stereo unspecified)
inactive: dose: 60.0 mg/kg/injection, schedule: Q01DX005 (ip), vehicle: saline with Tween-80 97 % of control | dose: 120.0 mg/kg/injection, schedule: Q01DX005 (ip), vehicle: saline with Tween-80 98 % of control | dose: 240.0 mg/kg/injection, schedule: Q01DX005 (ip), vehicle: saline with Tween-80 104 % of control

COc1ccc(OC)c(C(/C=N/O)OC)c1 (stereo unspecified)
inactive: dose: 25.0 mg/kg/injection, schedule: Q04DX003 (ip), vehicle: saline with Tween-80 98 % of control and 100 % of control | dose: 50.0 mg/kg/injection, schedule: Q04DX003 (ip), vehicle: saline with Tween-80 98 % of control and 94 % of control | dose: 100.0 mg/kg/injection, schedule: Q04DX003 (ip), vehicle: saline with Tween-80 99 % of control and 87 % of control | dose: 200.0 mg/kg/injection, schedule: Q04DX003 (ip), vehicle: saline with Tween-80 103 % of control and 94 % of control | dose: 400.0 mg/kg/injection, schedule: Q04DX003 (ip), vehicle: saline with Tween-80 99 % of control

CCOC(=O)C(C(=O)c1ccccc1)C(C)(C)C (stereo unspecified)
inactive: dose: 37.5 mg/kg/injection, schedule: Q01DX009 (ip), vehicle: saline with Tween-80 103 % of control | dose: 75.0 mg/kg/injection, schedule: Q01DX009 (ip), vehicle: saline with Tween-80 105 % of control | dose: 150.0 mg/kg/injection, schedule: Q01DX009 (ip), vehicle: saline with Tween-80 112 % of control

Cc1cc(C(C)(C)C)c(O)c(C(C)(C)C)c1
inactive: dose: 100.0 mg/kg/injection, schedule: Q01DX009 (ip), vehicle: distilled water + Tween-80 + alcohol 104 % of control | dose: 200.0 mg/kg/injection, schedule: Q01DX009 (ip), vehicle: distilled water + Tween-80 + alcohol 102 % of control | dose: 400.0 mg/kg/injection, schedule: Q01DX009 (ip), vehicle: distilled water + Tween-80 + alcohol 98 % of control

Cn1cc(Cl)nc1CO
inactive: dose: 50.0 mg/kg/injection, schedule: Q04DX003 (ip), vehicle: saline sonified 95 % of control | [10] 100 % of control | dose: 200.0 mg/kg/injection, schedule: Q04DX003 (ip), vehicle: saline sonified 100 % of control

CN1/C(=C/C2=C([O-])C(=C/C3=[N+](C)c4ccccc4C3(C)C)/C2=O)C(C)(C)c2ccccc21
inactive: [8] 91 % of control | [9] 87 % of control

Nc1nc(=S)c2ncn(C3OC(CO)C(O)C3O)c2[nH]1 (stereo unspecified)
active: dose: 2.0 mg/kg/injection, schedule: Q01DX010 (ip), vehicle: saline 168 % of control | [7] 150 % of control and 158 % of control
inactive: dose: 8.0 mg/kg/injection, schedule: Q01DX010 (ip), vehicle: saline 118 % of control | dose: 25.0 mg/kg/injection, schedule: Q01DX005 (ip), vehicle: saline with Tween-80 104 % of control | [6] 120 % of control | [10] 122 % of control | dose: 132.0 mg/kg/injection, schedule: Q04DX003 (ip), vehicle: saline with Tween-80 117 % of control | dose: 400.0 mg/kg/injection, schedule: Q04DX003 (ip), vehicle: saline sonified 86 % of control

S=C(Oc1ccccc1)Oc1ccccc1
inactive: [4] 95 % of control | [5] 91 % of control | dose: 100.0 mg/kg/injection, schedule: Q01DX009 (ip), vehicle: saline with Tween-80 93 % of control

O=C1OC(c2ccccc2)=N/C1=C\c1ccc(/C=C2/N=C(c3ccccc3)OC2=O)cc1
inactive: dose: 100.0 mg/kg/injection, schedule: Q04DX002 (ip), vehicle: saline with Tween-80 100 % of control | dose: 200.0 mg/kg/injection, schedule: Q04DX002 (ip), vehicle: saline with Tween-80 104 % of control | dose: 400.0 mg/kg/injection, schedule: Q04DX002 (ip), vehicle: saline with Tween-80 95 % of control
